The values that follow come from patent US10413581B2, “Combination, composition, and method of administering the combination or composition to animals” (Phibro Animal Health Corporation, priority 2014, dated 2019).

One experiment deals with coccidia. Put plainly: Example 4: compatibility of the composition with Salinomycin; feed conversion, weight gain, oocysts, coccidial challenge. The experiment is classed as in vivo, broilers. As to conditions: between days 21 and 28; composition 250 ppm, Salinomycin 66 ppm. How it is done:
In this particular embodiment, the compatibility of the Yucca schidigera and Quillaja saponaria composition with Salinomycin was evaluated. The treatments included embodiments where no feed additive was provided (e.g., none of the composition added), where 250 ppm of the composition was provided, where 66 ppm of Salinomycin was provided, and embodiments where 250 ppm of the composition and 66 ppm of Salinomycin were provided in combination. The anticoccidial effects and immune potentiation of each test embodiment were evaluated and the results are provided graphically in FIGS. 20-26.
A challenge study was also conducted to evaluate the potential for immune potentiation. Similar to the challenge study described in Example 3, 5 birds were removed from each pen after 21 days. These birds were challenged with a three-species coccidial challenge and then placed in batter cages for seven days. On day 28, the birds were killed and lesion scored.

In another experiment the test system is E. tenella. Briefly: Example 5: birds infected with E. tenella field isolate; performance, lesion score, OPG. The experiment is classed as in vivo. An excerpt:
In another test embodiment, the effects of lower amounts of NFP (e.g., 100 ppm, 125 ppm, and 150 ppm) on birds infected with E. tenella, a species of Eimeria that causes hemorrhagic cecal coccidiosis in poultry, particularly young poultry. Infected birds were infected with 100,000 oocysts of field isolate of E. tenella. The infected birds were subjected to the treatments described below in entries 2-6 of Table 4.

A further experiment deals with E. acervulina. Briefly: Example 8: lesion score and OPG, E. acervulina. Format: in vivo, Cobb 500 male chicks. As to conditions: Composition 250 ppm, Salinomycin 66 ppm, alone or combined. An excerpt:
On Days 18, 28, and 35, three birds per pen were sacrificed and coccidial lesion scored for degree of E. acervulina, E. maxima and E. tenella infection (Examples 6 and 7). The system of Johnson and Reid (1970) wherein 0 is normal and 1, 2, 3, or 4 indicate increasing severity of infection were used for lesion scoring. In Example 8, three birds per pen were sacrificed on days […] and coccidial lesion scored for degree of E. acervulina, E. maxima and E. tenella infection. The system of Johnson and Reid (1970) wherein 0 is normal and 1, 2, 3, or 4 indicate increasing severity of infection were used for lesion scoring.
On Days 18 and 28 fresh fecal samples were collected from each pen (Examples 6 and 7). On Days 18 and 28, fresh fecal samples were collected from each pen (Example 8). These representative samples were tested to determine the degree of oocysts shedding/cycling. Oocysts per gram were determined for each sample.
In this example, the ability of exemplary compositions to improve bird performance under challenge conditions was determined. In some embodiments, an exemplary composition was administered alone and in other embodiments, it was administered in combination with Salinomycin. In some embodiments, the birds were not fed any additives (that is, neither the composition nor Salinomycin) and in other embodiments the birds were solely fed Salinomycin. The birds used in this example were exposed to ionophore tolerant coccidia in the litter of all pens, beginning from day of age. […] The results from this example further illustrate that the disclosed compositions and combinations are effective to better control coccidia that are partially resistant to ionophores.

[1] abbreviates: 44 ppm, birds infected with 100,000 oocysts of E. tenella.
Setting [2] is: 66 ppm, entry 7 of Table 4 (entries 2-6 infected).

As for `CC[C@@H](C(=O)[C@@H](C)[C@@H](O)[C@H](C)[C@@H]1O[C@@H]([C@@H](CC)C(=O)O)CC[C@@H]1C)[C@H]1O[C@]2(C=C[C@@H](O)[C@]3(CC[C@@](C)([C@H]4CC[C@](O)(CC)[C@H](C)O4)O3)O2)[C@H](C)C[C@@H]1C` [Salinomycin], the “susceptibility of broilers to coccidial challenge” value in the experiment on coccidia was “increased the susceptibility”. Also, in the experiment on E. tenella (setting [1]), the “Adj. Fd. Conv.” value was determined as 1.929 ab, the “Avg. Wt. Gain” value is reported as 0.242 ab, the “Feed Consum.” value amounted to 2.787 a and the “Lesion Score” value was determined as 0.8 c. The OPG with E. tenella (setting [1]) was 800 oocysts per gram of fecal material. Besides, in the experiment on E. tenella (setting [2]), the “Adj. Fd. Conv.” value turned out to be 1.863 bc, the “Avg. Wt. Gain” value worked out at 0.245 ab, the “Feed Consum.” value was determined as 2.671 a and the “Lesion Score” value came to 0.6 c. Moreover, the OPG in the experiment on E. tenella (setting [2]) is listed as 150 oocysts per gram of fecal material. Also, in the experiment with E. acervulina (Day 18), the “Lesion Scores E.A.” value is 1.3a. Further, in the experiment with E. acervulina (Day 21), the “OPG E.A.” value came to 2915bc oocysts per gram. Also, in the experiment with E. acervulina (Day 28), the “Lesion Scores E.A.” value is given as 1.2ab and the “OPG E.A.” value came out at 3819b oocysts per gram.
